Measured values reported in ChEMBL document CHEMBL1127088, “Analogues of platelet activating factor. 8. Antagonists of PAF containing an aromatic ring linked to a pyridinium ring” (J Med Chem, 1993).

Columns and labels:
[1] = molecular target: Platelet-activating factor receptor (Mus musculus) (UniProt Q62035); experiment: Protection of PAF induced lethality in mouse after intraperitoneal dose of 1 mg/kg in saline 0.5 hr prior to an LD90 of PAF; type: functional, organism-based; parameters: dose 1 mg/kg
Sequence of Platelet-activating factor receptor (Mus musculus) (Q62035 whole entry): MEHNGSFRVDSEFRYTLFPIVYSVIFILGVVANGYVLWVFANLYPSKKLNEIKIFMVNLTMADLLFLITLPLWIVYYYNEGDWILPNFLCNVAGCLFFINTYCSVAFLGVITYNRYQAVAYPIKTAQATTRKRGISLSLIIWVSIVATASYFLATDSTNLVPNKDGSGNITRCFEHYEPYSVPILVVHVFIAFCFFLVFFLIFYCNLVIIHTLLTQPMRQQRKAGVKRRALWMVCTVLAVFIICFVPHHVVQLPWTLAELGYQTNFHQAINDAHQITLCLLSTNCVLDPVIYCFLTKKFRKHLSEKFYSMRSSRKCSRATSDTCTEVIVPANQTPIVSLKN

Oryctolagus cuniculus = experiment: Protection of PAF induced lethality in rabbit after intraperitoneal dose of 1 mg/kg in saline 0.5 hr prior to an LD90 of PAF; type: functional; settings: ip

Row | Structure (SMILES) | Survival [1] | survival at 1 mg/kg (Oryctolagus cuniculus)
1 | CCCCCCCCCCCCCCOc1ccc(C(=O)N(Cc2cccc[n+]2Cc2ccccc2)C(C)=O)cc1 | 0% | 
2 | CCCCCCCCCCOc1ccc(C(=O)N(Cc2cccc[n+]2C)C(C)=O)cc1C(C)(C)C | 50% | 
3 | CCCCCCCCCCCCCCOc1ccc(C(=O)N(Cc2cccc[n+]2CC)C(C)=O)cc1OC | 58% | 33%
4 | CCCCCCCCCCCCCCOc1ccc(C(=O)NC(=O)c2cc[n+](CCC)cc2)cc1OC | 33% | 
5 | CCCCCCCCCCCCCCOc1ccc(C(=O)NC(=O)c2ccc[n+](CCC)c2)cc1OC | 42% | 
6 | CCCCCCCCCCCCCCOc1cccc(OP(=O)([O-])Oc2cccc(C[n+]3csc(C)c3)c2)c1C(=O)OC | 85% | 53%
7 | CCCCCCCCCCCCCCOc1ccc(C(=O)N(Cc2cc[n+](C)cc2)C(C)=O)cc1C(C)(C)C | 27% | 
8 | CCCCCCCCCCCCCCOc1ccc(CN(Cc2cccc[n+]2CC)C(C)=O)cc1 | 40% | 
9 | CCCCCCCCCCCCCCOc1ccc(COC(=O)NCc2cccc[n+]2CC)cc1 | 36% | 
10 | CCCCCCCCCCCCCCOc1ccc(C(=O)N(Cc2cccc[n+]2CCC)C(C)=O)cc1OC | 47% | 
11 | CCCCCCCCCCCCCCOc1cc(C(=O)N(Cc2cccc[n+]2C)C(C)=O)ccc1OC | 21% | 
12 | CCCCCCCCCCCCCCOc1ccc(COC(=O)N(Cc2cccc[n+]2C)C(C)=O)cc1 | 40% | 
13 | CCCCCCCCCCCCCCOc1ccc(C(=O)N(Cc2cccc[n+]2C)C(C)=O)cc1C(C)(C)C | 64% | 100%
14 | CCCCCCCCCCCCCCOc1ccc(C(=O)N(Cc2cccc[n+]2C)C(C)=O)cc1OCCCCCCCCCCCCCC | 36% | 
15 | CCCCCCCCCCCCCCOc1ccc(CN(Cc2cc[n+](C)cc2)C(C)=O)cc1 |  | 0%
16 | CCCCCCCOc1ccc(C(=O)N(Cc2cccc[n+]2C)C(C)=O)cc1OCCCCCCC | 45% | 0%
17 | CCCCCCCCCCCCCCOc1ccc(C(=O)N(Cc2cccc[n+]2C)C(C)=O)cc1 | 27% | 
18 | CCCCCCCCCCCCCCOc1ccc(CNC(=O)c2cccc[n+]2CC)cc1 | 36% | 
19 | CCCCCCCCCCCCCCOc1ccccc1CN(Cc1cccc[n+]1C)C(C)=O | 23% | 
20 | CCCCCCCCCCCCCCOc1ccc(C(=O)N(Cc2cccc[n+]2C)C(C)=O)cc1OC | 58% | 75%
21 | CCCCCCCCCCCCCCOc1ccc(CN(Cc2ccc[n+](C)c2)C(C)=O)cc1 | 38% | 
22 | CCCCCCCCCCCCCCCCCCNC(=O)Oc1ccc(C(=O)N(Cc2cccc[n+]2C)C(C)=O)cc1C(C)(C)C | 29% | 
23 | CCCCCCCCCCCCCCOc1ccc(C(=O)N(Cc2ccc[n+](C)c2)C(C)=O)cc1C(C)(C)C | 17% | 
